According to ChEMBL document CHEMBL1131996, “Design, combinatorial chemical synthesis and in vitro characterization of novel urea based gelatinase inhibitors” (Bioorg Med Chem Lett, 1999):
“And” between values parts separate entries of the source, which are not always exact repeats. Identical values can stand only once.

What follows are compounds tested against 72 kDa type IV collagenase (Homo sapiens, UniProt P08253) (assay: Inhibitory activity against matrix metalloprotease-2 (MMP-2).).
72 kDa type IV collagenase, sequence (P08253 whole entry): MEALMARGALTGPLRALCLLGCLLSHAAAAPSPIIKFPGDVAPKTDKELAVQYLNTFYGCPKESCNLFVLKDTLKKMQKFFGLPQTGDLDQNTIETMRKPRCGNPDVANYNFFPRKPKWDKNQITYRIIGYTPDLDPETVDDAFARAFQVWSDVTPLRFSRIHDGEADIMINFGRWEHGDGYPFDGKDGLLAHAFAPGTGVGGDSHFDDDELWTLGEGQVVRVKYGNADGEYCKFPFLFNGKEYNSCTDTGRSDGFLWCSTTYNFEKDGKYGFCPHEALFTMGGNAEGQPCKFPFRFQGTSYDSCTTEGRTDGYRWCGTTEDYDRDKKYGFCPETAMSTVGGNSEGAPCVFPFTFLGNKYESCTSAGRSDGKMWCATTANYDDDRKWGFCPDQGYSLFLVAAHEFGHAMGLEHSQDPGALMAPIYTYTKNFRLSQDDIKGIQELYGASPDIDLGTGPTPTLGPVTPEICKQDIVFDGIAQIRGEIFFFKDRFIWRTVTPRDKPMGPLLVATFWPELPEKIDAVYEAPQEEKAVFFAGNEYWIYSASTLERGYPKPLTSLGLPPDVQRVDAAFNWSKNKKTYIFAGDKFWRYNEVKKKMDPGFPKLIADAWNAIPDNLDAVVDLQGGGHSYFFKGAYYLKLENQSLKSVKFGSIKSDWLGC

| SMILES | IC50 |
| --- | --- |
| O=C(CN(C(=O)CN(CCCc1ccccc1)C(=O)Nc1ccc(Oc2ccccc2)cc1)C1CCCc2ccccc21)NO (stereo not given) | > 500 µM |
| O=C(CN(C(=O)CN(CCCc1ccccc1)C(=O)Nc1ccc(Oc2ccccc2)cc1)C(c1ccccc1)c1ccccc1)NO | 200 µM |
| CCCCCCCN(CC(=O)NO)C(=O)CN(CCCc1ccccc1)C(=O)Nc1ccc(Oc2ccccc2)cc1 | 150 µM |
| CCCCN(CC(=O)NO)C(=O)CN(CCCc1ccccc1)C(=O)Nc1ccc(Oc2ccccc2)cc1 | 230 µM |
| CC(C)(C)N(CC(=O)N(CC(=O)NO)CC1CCCCC1)C(=O)Nc1ccc(Oc2ccccc2)cc1 | 150 µM |
| O=C(CN(Cc1ccccc1)C(=O)CN(CC1CCCCC1)C(=O)Nc1ccc(Oc2ccccc2)cc1)NO | 125 µM |
| CCC(C)N(CC(=O)NO)C(=O)CN(CCCc1ccccc1)C(=O)Nc1ccc(Oc2ccccc2)cc1 (stereo not given) | 370 µM |
| CCCCCN(CC(=O)NO)C(=O)CN(C(=O)Nc1ccc(Oc2ccccc2)cc1)C(C)CCC (stereo not given) | 160 µM |
| CC(C)N(CC(=O)N(CC(=O)NO)C(C)(C)C)C(=O)Nc1ccc(Oc2ccccc2)cc1 | 155 µM |
| CC(C)(C)N(CC(=O)NO)C(=O)CN(CCCc1ccccc1)C(=O)Nc1ccc(Oc2ccccc2)cc1 | > 500 µM |
| CCCCCN(CC(=O)NO)C(=O)CN(CCCCc1ccccc1)C(=O)Nc1cc(Cl)ccc1OC | > 500 µM |
| O=C(CN(CC1CCCCC1)C(=O)CN(CCCc1ccccc1)C(=O)Nc1ccc(Oc2ccccc2)cc1)NO | > 500 µM |
| CCCCN(CC(=O)NO)C(=O)CN(CC1CCCCC1)C(=O)Nc1ccc([N+](=O)[O-])cc1C | > 500 µM |
| CCCCCCCN(CC(=O)NO)C(=O)CN(C(=O)Nc1ccc(OCCCC)cc1)C(c1ccccc1)c1ccccc1 | > 500 µM |
| CSc1ccccc1NC(=O)N(CCCc1ccccc1)CC(=O)N(CC(=O)NO)C(C)(C)C | 150 µM |
| O=C(CN(CCCCc1ccccc1)C(=O)CN(CCCc1ccccc1)C(=O)Nc1ccc(Oc2ccccc2)cc1)NO | 0.9 µM and 0.3 µM |
| CC(C)N(CC(=O)NO)C(=O)CN(CCCc1ccccc1)C(=O)Nc1ccc(Oc2ccccc2)cc1 | > 500 µM |

Further compounds by falling IC50, results first:

| IC50 | SMILES |
| --- | --- |
| 120 µM | CCCC(C)N(CC(=O)NO)C(=O)CN(C(=O)Nc1ccc2ccccc2c1)C1CCCc2ccccc21 (stereo not given) |
| 114 µM | CCCCCCCN(CC(=O)N(CCc1ccc(F)cc1)CC(=O)NO)C(=O)Nc1ccc(Oc2ccccc2)cc1 |
| 110 µM | CCC(C)N(CC(=O)NO)C(=O)CN(Cc1ccccc1)C(=O)Nc1cccc2ccccc12 (stereo not given) |
| 100 µM | CCCCCN(CC(=O)NO)C(=O)CN(CCCc1ccccc1)C(=O)Nc1ccc(Oc2ccccc2)cc1 |
| 100 µM | CCCC(C)N(CC(=O)NO)C(=O)CN(CCCc1ccccc1)C(=O)Nc1ccc(Oc2ccccc2)cc1 (stereo in doubt; form 2) |
| 90 µM | CC(C)N(CC(=O)NO)C(=O)CN(CCc1ccc(F)cc1)C(=O)Nc1ccc(Oc2ccccc2)cc1 |
| 72 µM | CCC(C)N(CC(=O)N(CC(=O)NO)C(C)C)C(=O)Nc1ccc(Oc2ccccc2)cc1 (stereo not given) |
| 60 µM | CCCCCCCN(CC(=O)NO)C(=O)CN(CCCCC)C(=O)Nc1ccc(Oc2ccccc2)cc1 |
| 60 µM | O=C(CN(C(=O)CN(C(=O)Nc1ccc(Oc2ccccc2)cc1)C1CCCc2ccccc21)C1CCCc2ccccc21)NO (stereo not given) |
| 54 µM | CCCCN(CC(=O)N(CC(=O)NO)C(C)CC)C(=O)Nc1ccc(Oc2ccccc2)cc1 (stereo not given) |
| 52 µM | O=C(CN(CCCCc1ccccc1)C(=O)CN(CCCCc1ccccc1)C(=O)Nc1ccc(Oc2ccccc2)cc1)NO |
| 51 µM | CCCCN(CC(=O)NO)C(=O)CN(CCc1ccc(F)cc1)C(=O)Nc1ccc(Oc2ccccc2)cc1 |
| 50 µM | O=C(CN(C(=O)CN(C(=O)Nc1ccc(Oc2ccccc2)cc1)C(c1ccccc1)c1ccccc1)C(c1ccccc1)c1ccccc1)NO |
| 43 µM | O=C(CN(CCCc1ccccc1)C(=O)CN(Cc1ccccc1)C(=O)Nc1ccc(Oc2ccccc2)cc1)NO |
| 40 µM | O=C(CN(CCc1ccc(F)cc1)C(=O)CN(CCCc1ccccc1)C(=O)Nc1ccc(Oc2ccccc2)cc1)NO |
| 23 µM | CCCC(C)N(CC(=O)NO)C(=O)CN(CCCc1ccccc1)C(=O)Nc1ccc(Oc2ccccc2)cc1 (stereo in doubt; form 1) |
| 2 µM | O=C(CN(CCCc1ccccc1)C(=O)CN(CCCc1ccccc1)C(=O)Nc1ccc(Oc2ccccc2)cc1)NO |
| 0.3 µM | O=C(CN(Cc1ccccc1)C(=O)CN(CCCc1ccccc1)C(=O)Nc1ccc(Oc2ccccc2)cc1)NO |
